This is an account of results in US20250034170A1, “SMALL MOLECULE MODULATORS OF GLUCOCEREBROSIDASE ACTIVITY AND USES THEREOF” (Vanqua Bio, Inc., priority 2021, published 2025).

Broadly, the EC50 is the midpoint of the concentration-response curve. Higher therefore signals a less potent agent.

The target in the first assay is T1, GCase (Homo sapiens, UniProt P04062).
T1 construct: endogenous in cells; host or cells: HeLa cells
T1 sequence (P04062 40-536): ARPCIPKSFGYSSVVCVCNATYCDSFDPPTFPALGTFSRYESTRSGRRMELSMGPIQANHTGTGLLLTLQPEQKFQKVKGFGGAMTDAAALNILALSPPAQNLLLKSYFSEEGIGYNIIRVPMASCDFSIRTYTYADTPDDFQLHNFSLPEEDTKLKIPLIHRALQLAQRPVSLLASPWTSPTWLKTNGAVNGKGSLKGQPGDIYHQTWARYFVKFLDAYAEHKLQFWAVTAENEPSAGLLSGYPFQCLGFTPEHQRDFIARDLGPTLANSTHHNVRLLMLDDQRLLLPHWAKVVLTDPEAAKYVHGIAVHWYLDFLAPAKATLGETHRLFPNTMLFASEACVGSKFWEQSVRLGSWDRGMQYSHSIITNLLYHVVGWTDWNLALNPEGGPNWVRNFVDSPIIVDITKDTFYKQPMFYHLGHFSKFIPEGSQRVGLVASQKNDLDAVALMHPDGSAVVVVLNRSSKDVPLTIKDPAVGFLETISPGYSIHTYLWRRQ
Briefly: activation of GCase in a live cell PFB assay in HELA cells. The assay is classed as cell-based. As to conditions: EC50 given as range classes. The method, then:
Exemplary compounds were evaluated for activation of GCase in a live cell PFB assay in HELA cells (essentially as described in Ysselstein et al., “LRRK2 kinase activity regulates lysosomal glucocerebrosidase in neurons derived from Parkinson's disease patients” Nature Communications (2019) 10:5570). […] EC50 ranges: A: <10 μM; B: >10-50 μM; C: >50-100 μM; D: >100 μM.
`Cc1cc(C(F)(F)F)ncc1N1CC2(CCN(c3cnc4cnn(CC(F)F)c4n3)CC2)CC1=O` [Cmpd 778] had an EC50 of less than 10 µM. `COc1nc(C(F)(F)F)ccc1N1CC2(CCN(c3cnc4cnn(CC(F)F)c4n3)CC2)CC1=O` [Cmpd 779] registered an EC50 of less than 10 µM. `O=C1CC2(CCN(c3cnc4cnn(CC(F)F)c4n3)CC2)CN1c1ccc(C(F)(F)F)nc1OC(F)F` [Cmpd 780]: the EC50 is less than 10 µM.

`Cc1ccc(N2CC3(CCN(c4cnc5cnn(CC(F)F)c5n4)CC3)CC2=O)c(OC(F)F)n1` [Cmpd 781] had an EC50 of less than 10 µM. Compound `Cc1ccc(N2CC3(CCN(c4cnc5cnn(CC(F)F)c5n4)CC3)CC2=O)c(OC(F)(F)F)n1` [Cmpd 782] came in with an EC50 of less than 10 µM. Same read-out and setting: the same measure for `COc1nc(N2CCC3(CCN(c4cnc5cnn(CC(F)F)c5n4)CC3)C2=O)ccc1C(F)(F)F` [Cmpd 783]: 50 to 100 µM; for `COc1ccc(C(F)(F)F)c(N2CCC3(CCN(c4cnc5cnn(CC(F)F)c5n4)CC3)C2=O)n1` [Cmpd 784]: less than 10 µM; for `Cc1cnc(N2CCC3(CCN(c4cnc5cnn(CC(F)F)c5n4)CC3)C2)nc1C(F)(F)F` [Cmpd 785]: more than 100 µM. In the case of `Cc1nc(C(F)(F)F)cnc1N1CCC2(CCN(c3cnc4cnn(CC(F)F)c4n3)CC2)C1` [Cmpd 786], the EC50 was less than 10 µM. `COc1nc(C(F)(F)F)ncc1N1CCC2(CCN(c3cnc4cnn(CC(F)F)c4n3)CC2)C1` [Cmpd 787] yielded an EC50 of less than 10 µM.

In turn, `COc1ncc(N2CCC3(CCN(c4cnc5cnn(CC(F)F)c5n4)CC3)C2)c(C(F)(F)F)n1` [Cmpd 788] registered an EC50 of 10 to 50 µM. On to `O=C1CC2(CCN(c3cnc4cnn(CC(F)F)c4n3)C2)CCN1c1ccc(C(F)(F)F)nc1` (stereo not shown) [Cmpd 789], for which the EC50 fell in the range of 10 to 50 µM.

Take `O=C1CCC2(CCN(c3cnc4cnn(CC(F)F)c4n3)C2)CN1c1ccc(C(F)(F)F)nc1` (stereo not shown) [Cmpd 790]: the EC50 was less than 10 µM. On the same count and under the same terms, in the case of `O=C1CC2(CCN(c3cnc4cnn(CC(F)F)c4n3)C2)CCN1c1ccc(C(F)(F)F)cn1` (stereo not shown) [Cmpd 791] it was 50 to 100 µM; in that of `O=C1CCC2(CCN(c3cnc4cnn(CC(F)F)c4n3)C2)CN1c1ccc(C(F)(F)F)cn1` (stereo not shown) [Cmpd 792], less than 10 µM; in that of `O=C1CC2(CCN(c3cnc4cnn(CC(F)F)c4n3)C2)CCN1c1cc(C(F)(F)F)ccn1` (stereo not shown) [Cmpd 793], 10 to 50 µM. Compound `O=C1CCC2(CCN(c3cnc4cnn(CC(F)F)c4n3)C2)CN1c1cc(C(F)(F)F)ccn1` (stereo not shown) [Cmpd 794] had an EC50 of less than 10 µM. In turn, `O=C1CC2(CCN(c3cnc4cnn(CC(F)F)c4n3)C2)CCN1c1cncc(C(F)(F)F)c1` (stereo not shown) [Cmpd 795] gave an EC50 of less than 10 µM. On the same count and under the same terms, in the case of `O=C1CCC2(CCN(c3cnc4cnn(CC(F)F)c4n3)C2)CN1c1cncc(C(F)(F)F)c1` (stereo not shown) [Cmpd 796] it was less than 10 µM; in that of `O=C1N(c2ccc(C(F)(F)F)nc2)CCC12CC1CCC(C2)N1c1cnc2cnn(CC(F)F)c2n1` (stereo not shown) [Cmpd 797], less than 10 µM; in that of `O=C1N(c2ccc(C(F)(F)F)cn2)CCC12CC1CCC(C2)N1c1cnc2cnn(CC(F)F)c2n1` (stereo not shown) [Cmpd 798], 10 to 50 µM.

In turn, `O=C1N(c2ccc(C(F)(F)F)nc2)CCC12C1CCC2CN(c2cnc3cnn(CC(F)F)c3n2)C1` (stereo not shown) [Cmpd 799] came in with an EC50 of less than 10 µM.

The same assay, now with this note: activation of GCase, EC50 ranges.
In turn, `FC(F)Cn1ncc2ncc(N3CCC4(CC3)CCN(c3nccnc3C(F)(F)F)C4)nc21` [Cmpd 735] had an EC50 of 10 to 50 µM. With `FC(F)Cn1ncc2ncc(N3CCC4(CCN(c5cnc(C(F)(F)F)nc5)C4)CC3)nc21` [Cmpd 736], the EC50 was in the range of 10 to 50 µM.

`FC(F)Cn1ncc2ncc(N3CCC4(CCN(c5ccnc(C(F)(F)F)n5)C4)CC3)nc21` [Cmpd 737] had an EC50 of less than 10 µM. Turning to `FC(F)Cn1ncc2ncc(N3CCC4(CCN(c5ccnc(OCC(F)(F)F)n5)C4)CC3)nc21` [Cmpd 738], the EC50 was less than 10 µM.

The compound `FC(F)Cn1ncc2ncc(N3CCC4(CCN(c5cnc(OCC(F)(F)F)nc5)C4)CC3)nc21` [Cmpd 739] displayed an EC50 of less than 10 µM. In turn, `Fc1cnc(N2CCC3(CCN(c4cnc5cnn(CC(F)F)c5n4)CC3)C2)cc1C(F)(F)F` [Cmpd 740] came in with a 50% effective concentration (EC50) of less than 10 µM.

Compound `Fc1cnc(C(F)(F)F)cc1N1CCC2(CCN(c3cnc4cnn(CC(F)F)c4n3)CC2)C1` [Cmpd 741] gave an EC50 of less than 10 µM. Take `Fc1cc(N2CCC3(CCN(c4cnc5cnn(CC(F)F)c5n4)CC3)C2)cnc1C(F)(F)F` [Cmpd 742]: the EC50 is less than 10 µM.

In the case of `Fc1cc(C(F)(F)F)cnc1N1CCC2(CCN(c3cnc4cnn(CC(F)F)c4n3)CC2)C1` [Cmpd 743], the EC50 is 10 to 50 µM. Still for that read-out and setting: in the case of `CC1CC2(CCN(c3cc(C(F)(F)F)ccn3)C2)CCN1c1cnc2cnn(CC(F)F)c2n1` (stereo not shown) [Cmpd 745] it was less than 10 µM. Consider `CC1CN(c2cnc3cnn(CC(F)F)c3n2)CCC12CCN(c1cc(C(F)(F)F)ccn1)C2` (stereo not shown) [Cmpd 746], for which the EC50 is less than 10 µM.

`CC1N(c2cc(C(F)(F)F)ccn2)CCC12CCN(c1cnc3cnn(CC(F)F)c3n1)CC2` (stereo not shown) [Cmpd 747]: the EC50 is 10 to 50 µM. With `CC1CN(c2cc(C(F)(F)F)ccn2)CC12CCN(c1cnc3cnn(CC(F)F)c3n1)CC2` (stereo not shown) [Cmpd 748], the EC50 was less than 10 µM. `CC1CC2(CCN(c3cnc4cnn(CC(F)F)c4n3)CC2)CN1c1cc(C(F)(F)F)ccn1` (stereo not shown) [Cmpd 749]: the EC50 was in the range of 10 to 50 µM. For `COCCn1ncc2ncc(N3CCC4(CCN(c5cc(C(F)(F)F)ccn5)C4)CC3)nc21` [Cmpd 750], the EC50 was less than 10 µM. As to `FC(F)OCCn1ncc2ncc(N3CCC4(CCN(c5cc(C(F)(F)F)ccn5)C4)CC3)nc21` [Cmpd 751], the EC50 was 10 to 50 µM. On the same count and under the same terms, the same measure for `CC(C(F)F)n1ncc2ncc(N3CCC4(CCN(c5cc(C(F)(F)F)ccn5)C4)CC3)nc21` (stereo not shown) [Cmpd 752]: less than 10 µM; for `Cc1cc(C(F)(F)F)ncc1N1CCC2(CCN(c3cnc4cnn(CC(F)F)c4n3)CC2)C1` [Cmpd 753]: less than 10 µM; for `FC(F)Cn1ncc2ncc(N3CCC4(CC3)CCN(c3cnc(C(F)(F)F)cc3Cl)C4)nc21` [Cmpd 754]: more than 100 µM. The compound `Cc1cc(C)c(N2CCC3(CCN(c4cnc5cnn(CC(F)F)c5n4)CC3)C2)nn1` [Cmpd 755] yielded an EC50 of 10 to 50 µM. As for `Cc1cc(C(F)(F)F)nnc1N1CCC2(CCN(c3cnc4cnn(CC(F)F)c4n3)CC2)C1` [Cmpd 756], the EC50 was in the range of 10 to 50 µM. Take `Cc1ccc(N2CCC3(CCN(c4cnc5cnn(CC(F)F)c5n4)CC3)C2)nn1` [Cmpd 757]: the EC50 was less than 10 µM.

As to `Cc1nccc(N2CCC3(CCN(c4cnc5cnn(CC(F)F)c5n4)CC3)C2)n1` [Cmpd 758], the EC50 was less than 10 µM. With `Cc1ncc(N2CCC3(CCN(c4cnc5cnn(CC(F)F)c5n4)CC3)C2)cn1` [Cmpd 759], the EC50 was less than 10 µM. On to `CCc1ncc(N2CCC3(CCN(c4cnc5cnn(CC(F)F)c5n4)CC3)C2)cn1` [Cmpd 760], for which the EC50 was less than 10 µM. Same read-out and setting: in the case of `Cc1nc(C(F)(F)F)ncc1N1CCC2(CCN(c3cnc4cnn(CC(F)F)c4n3)CC2)C1` [Cmpd 761] it was less than 10 µM; in that of `COc1ncc(N2CCC3(CCN(c4cnc5cnn(CC(F)F)c5n4)CC3)C2)cn1` [Cmpd 762], less than 10 µM. `CCOc1ncc(N2CCC3(CCN(c4cnc5cnn(CC(F)F)c5n4)CC3)C2)cn1` [Cmpd 763]: the EC50 is less than 10 µM. Same read-out and setting: in the case of `Cc1ncc(N2CCC3(CCN(c4cnc5cnn(CC(F)F)c5n4)CC3)C2)nc1C(F)(F)F` [Cmpd 764] it was less than 10 µM; in that of `Cc1ncc(C(F)(F)F)nc1N1CCC2(CCN(c3cnc4cnn(CC(F)F)c4n3)CC2)C1` [Cmpd 765], less than 10 µM.

Consider `Fc1ncc(C(F)(F)F)nc1N1CCC2(CCN(c3cnc4cnn(CC(F)F)c4n3)CC2)C1` [Cmpd 766], for which the EC50 is less than 10 µM.

Compound `Fc1ncc(N2CCC3(CCN(c4cnc5cnn(CC(F)F)c5n4)CC3)C2)nc1C(F)(F)F` [Cmpd 767] showed an EC50 of less than 10 µM. With `FC(F)(F)c1cncc(N2CCC3(CCN(c4cnc5cnn(C6COC6)c5n4)CC3)C2)n1` [Cmpd 768], the 50% effective concentration (EC50) is less than 10 µM. Regarding `O=C1CC2(CCN(c3cnc4cnn(C5COC5)c4n3)CC2)CN1c1ccnc(C(F)(F)F)c1` [Cmpd 769], the EC50 lay within 10 to 50 µM. Regarding `FC(F)Cn1ncc2ncc(N3CC4(CCN(c5cnc(C(F)(F)F)cn5)CC4)C3)nc21` [Cmpd 770], the EC50 is less than 10 µM. As for `FC(F)Cn1ncc2ncc(N3CC4(CCN(c5cncc(C(F)(F)F)n5)CC4)C3)nc21` [Cmpd 771], the EC50 was less than 10 µM. For `O=C1N(c2cnc3cnn(CC(F)F)c3n2)CCC12CCN(c1cnc(C(F)(F)F)cn1)CC2` [Cmpd 772], the EC50 is more than 100 µM. Take `O=C1N(c2nccc(C(F)(F)F)n2)CCC12CCN(c1cnc3cnn(CC(F)F)c3n1)CC2` [Cmpd 773]: the EC50 was less than 10 µM. For the compound `O=C1N(c2cncc(C(F)(F)F)n2)CCC12CCN(c1cnc3cnn(CC(F)F)c3n1)CC2` [Cmpd 774], the EC50 is less than 10 µM. Compound `Cc1cc(C(F)(F)F)cnc1N1CCC2(CCN(c3cnc4cnn(CC(F)F)c4n3)CC2)C1=O` [Cmpd 775] displayed an EC50 of more than 100 µM. Still for that read-out and setting: the same measure for `O=C1N(c2ncc(C(F)(F)F)cc2Cl)CCC12CCN(c1cnc3cnn(CC(F)F)c3n1)CC2` [Cmpd 776]: 10 to 50 µM; for `O=C1N(c2ncc(C(F)(F)F)cc2F)CCC12CCN(c1cnc3cnn(CC(F)F)c3n1)CC2` [Cmpd 777]: more than 100 µM.
